Source: patent publication US20230357139A1, “SMALL MOLECULE INHIBITORS OF BACTERIAL TOXINS” (Artizan Biosciences, Inc., priority 2020, published 2023)
Like-named read-outs stand apart in the source and are kept apart here.

Experiments:
Gelatinase E (GelE) = Gelatinase E (GelE) (Enterococcus faecalis (strain ATCC 700802 / V583), UniProt Q833V7); test: Gelatinase E activity assay (FRET peptide substrate); assay type: biochemical; settings: for IC50: Table 11
Protocol: Gelatinase E (Gel E) was purified from bacterial culture supernatant from E. faecalis. E. faecalis was cultured aerobically in Todd Hewitt Broth overnight at 37° C. Nucleic acid was precipitated with 0.9% protamine solution, followed by protein precipitation with ammonium sulfate. Resuspended protein pellet was further subjected to purification using FPLC (phenyl Sepharose column). Fractions with gelatinase activity as determined by casein agar assay were pooled and further concentrated.
Different concentrations of test compound were incubated with purified GelE and FRET-based peptide substrate (390 MMP FRET Substrate 1; Anaspec AS-27077) in assay buffer at room temperature for 30 minutes. The fluorescence signal was determined by a plate reader.

collagenase H (ColH) = collagenase H (ColH) (Hathewaya histolytica, UniProt Q46085); test: biochemical; parameters: species or system Clostridium histolyticum
recombinant BFT (rBFT) = test: NFF-3 cleavage assay; assay type: biochemical, B. fragilis
Protocol: A NFF-3 cleavage assay was used to test activity of recombinant BFT, before or after addition of various inhibitors. The NFF-3 cleavage assay was previously described by Goulas et al., PNAS, 2011, 108(5) 1856-1861, which is incorporated by reference herein in its entirety.
Initially, recombinant BFT (rBFT) (0.25, 0.5, 1, 2, 4, 8, or 16 μg/mL) was incubated at 37° C. with the fluorogenic substrate NFF-3 (Cayman Chemical) at a concentration of 2.5 μM, 5 μM, or 10 μM. After 18 hours, fluorescence was measured in a microplate fluorimeter.
Next, rBFT was pre-incubated with one or more test compounds at different concentrations for 30 minutes at 37° C. The rBFT-compound mixture was then added to NFF-3 and incubated for 24 hours at 37° C. Fluorescence was then measured in a microplate fluorimeter.

BFT = test: E-cadherin release assay (BFT-induced E-cadherin release from HT29 cells); assay type: cell-based, B. fragilis
Protocol: Test compounds were also screened for their ability to inhibit BFT-induced E-cadherin release from HT29 cells.
Different concentrations of test compounds were pre-incubated with rBFT for one hour at 37° C. The rBFT-compound mixture was then added to HT29 cells and incubated at 37° C. for 18 hours. Following incubation, cell supernatants were harvested and E-cadherin was quantified in the supernatants by ELISA (FIG. 2).

[1] = rBFT pre-incubated with compound 30 minutes at 37° C., then NFF-3 for 24 hours, read-out: NFF3 IC50
[2] = 18 hours, E-cadherin in supernatant by ELISA, read-out: HT29 Cell IC50

Gelatinase E (GelE), sequence (Q833V7 193-510 limits assumed): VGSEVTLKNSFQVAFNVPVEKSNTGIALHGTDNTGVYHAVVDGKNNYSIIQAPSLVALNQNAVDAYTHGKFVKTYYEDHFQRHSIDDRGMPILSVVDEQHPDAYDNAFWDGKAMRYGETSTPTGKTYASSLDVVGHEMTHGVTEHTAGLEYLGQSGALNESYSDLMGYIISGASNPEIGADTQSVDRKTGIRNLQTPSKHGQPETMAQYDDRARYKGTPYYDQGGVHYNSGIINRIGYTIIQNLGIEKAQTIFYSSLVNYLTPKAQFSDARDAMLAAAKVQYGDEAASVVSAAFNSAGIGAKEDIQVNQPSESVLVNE
collagenase H (ColH), sequence (Q46085 41-1021 limits assumed): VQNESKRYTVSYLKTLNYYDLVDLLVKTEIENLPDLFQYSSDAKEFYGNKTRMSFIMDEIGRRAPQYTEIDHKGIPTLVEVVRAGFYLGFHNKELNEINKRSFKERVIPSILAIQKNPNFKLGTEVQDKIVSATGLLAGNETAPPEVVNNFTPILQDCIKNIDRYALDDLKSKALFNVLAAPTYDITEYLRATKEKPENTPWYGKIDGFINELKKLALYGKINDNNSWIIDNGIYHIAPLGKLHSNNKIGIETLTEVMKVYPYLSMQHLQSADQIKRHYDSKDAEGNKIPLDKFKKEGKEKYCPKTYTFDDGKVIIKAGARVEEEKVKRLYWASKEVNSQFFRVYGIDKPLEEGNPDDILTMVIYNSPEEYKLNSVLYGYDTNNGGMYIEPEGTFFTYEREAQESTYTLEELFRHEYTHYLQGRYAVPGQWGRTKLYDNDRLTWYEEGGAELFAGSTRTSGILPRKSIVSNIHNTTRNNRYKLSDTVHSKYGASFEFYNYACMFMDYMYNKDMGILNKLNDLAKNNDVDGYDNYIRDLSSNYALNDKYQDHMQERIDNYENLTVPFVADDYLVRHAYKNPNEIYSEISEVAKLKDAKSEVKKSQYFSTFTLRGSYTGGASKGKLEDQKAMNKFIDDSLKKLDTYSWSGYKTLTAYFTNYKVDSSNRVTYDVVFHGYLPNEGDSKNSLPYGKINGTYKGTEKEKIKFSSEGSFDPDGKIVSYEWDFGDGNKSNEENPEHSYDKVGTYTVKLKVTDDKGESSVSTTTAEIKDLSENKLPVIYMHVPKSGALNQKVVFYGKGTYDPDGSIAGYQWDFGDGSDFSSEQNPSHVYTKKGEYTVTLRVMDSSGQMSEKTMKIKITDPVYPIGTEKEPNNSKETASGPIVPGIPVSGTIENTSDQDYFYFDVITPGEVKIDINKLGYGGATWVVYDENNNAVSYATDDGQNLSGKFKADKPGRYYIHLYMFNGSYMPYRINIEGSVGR

SMILES | IC50 (Gelatinase E (GelE)) | IC50 (recombinant BFT (rBFT); [1]) | also measured
CC(C)CN(CC(=O)NO)S(=O)(=O)c1ccc(Oc2ccccc2)cc1 [AA] | 1690 nM |  | 
CC(C)CN(CC(=O)NO)S(=O)(=O)c1ccc(OCCCF)cc1 [AB] | 2400 nM |  | 
CC(C)CN(CC(=O)NO)S(=O)(=O)c1ccc(OCC(=O)NCc2ccsc2)cc1 [AC] | 139 nM |  | 
Cc1ccc(CNC(=O)COc2ccc(S(=O)(=O)N(CC(=O)NO)CC(C)C)cc2)cc1 [AD] | 155 nM |  | 
COc1ccc(CNC(=O)COc2ccc(S(=O)(=O)N(CC(=O)NO)CC(C)C)cc2)cc1 [AE] | 156 nM |  | 
CC(C)CN(CC(=O)NO)S(=O)(=O)c1ccc(OCC(=O)NCc2cccc(C(F)(F)F)c2)cc1 [AF] | 113 nM |  | 
CC(C)CN(CC(=O)NO)S(=O)(=O)c1ccc(OCC(=O)NCc2cccc(Cl)c2)cc1 [AG, N-(3-chlorobenzyl)-2-(4-(N-(2-(hydroxyamino)-2-oxoethyl)-N-isobutylsulfamoyl)phenoxy)acetamide] | 103 nM |  | 
CC(C)CN(CC(=O)NO)S(=O)(=O)c1ccc(OCC(=O)NCc2ccc(C(F)(F)F)cc2)cc1 [AH] | 238 nM |  | 
CC(C)CN(CC(=O)NO)S(=O)(=O)c1ccc(OCC(=O)NCc2ccc(Cl)cc2)cc1 [AI] | 164 nM |  | 
CC(C)CN(CC(=O)NO)S(=O)(=O)c1ccc(OCC(=O)NCc2ccc(F)cc2)cc1 [AJ] | 313 nM |  | 
Cc1cccc(CNC(=O)COc2ccc(S(=O)(=O)N(CC(=O)NO)CC(C)C)cc2)c1 [AK] | > 10000 nM |  | 
Cc1ccccc1CNC(=O)COc1ccc(S(=O)(=O)N(CC(=O)NO)CC(C)C)cc1 [AL] | 218 nM |  | 
CC(C)CN(CC(=O)NO)S(=O)(=O)c1ccc(OCC(=O)NCc2cccc(F)c2)cc1 [AN] | 158 nM |  | 
CC(C)CN(CC(=O)NO)S(=O)(=O)c1ccc(OCC(=O)NCc2cc(F)cc(F)c2)cc1 [AO] | > 10000 nM |  | 
CC(C)CN(CC(=O)NO)S(=O)(=O)c1ccc(OCC(=O)NCc2ccccn2)cc1 [AP] | 177 nM |  | 
CSc1cccc(CNC(=O)COc2ccc(S(=O)(=O)N(CC(=O)NO)CC(C)C)cc2)c1 [AQ] | 119 nM |  | 
CC(C)CN(CC(=O)NO)S(=O)(=O)c1ccc(OCC(=O)NC(C)c2ccccc2)cc1 (stereo not shown) [AR] | 237 nM |  | 
COc1ccc(S(=O)(=O)N(CC(=O)NO)CC(C)C)cc1 [A] | 202 nM |  | GelE inhibition (Gelatinase E (GelE); FIG. 7): high levels of GelE inhibition; ColH inhibition (collagenase H (ColH)): high levels of ColH inhibition; IC50 (collagenase H (ColH); read-out: ColH IC50): 0.612 µM
CC(C)CN(CC(=O)NO)S(=O)(=O)c1ccc(OCC(=O)NCc2ccccc2)cc1 [B] | 130 nM |  | 
CCOc1ccc(S(=O)(=O)N(CC(=O)NO)CC(C)C)cc1 [C] | 372 nM |  | IC50 (collagenase H (ColH); read-out: ColH IC50): > 100 µM
CCCOc1ccc(S(=O)(=O)N(CC(=O)NO)CC(C)C)cc1 [D] | 489 nM |  | IC50 (collagenase H (ColH); read-out: ColH IC50): > 100 µM

SMILES | IC50 (Gelatinase E (GelE)) | IC50 (recombinant BFT (rBFT); [1]) | also measured
CC(C)CN(CC(=O)NO)S(=O)(=O)c1ccc(OC(C)C)cc1 [E] | 1210 nM |  | IC50 (collagenase H (ColH); read-out: ColH IC50): > 100 µM
CC(C)C[C@H](C(=O)NO)N(Cc1cccnc1)S(=O)(=O)c1ccc(O)cc1 [Example 1, (R)—N-hydroxy-2-((4-hydroxy-N-(pyridin-3-ylmethyl)phenyl)sulfonamido)-4-methylpentanamide] |  | < 150 nM | IC50 (BFT; [2]): 1.52 µM
C[C@H](O)[C@H](C(=O)NO)N(Cc1cccnc1)S(=O)(=O)c1ccc(O)cc1 [Example 2] |  | > 1000 nM | IC50 (BFT; [2]): 6.72 µM
CSCC[C@H](C(=O)NO)N(Cc1cccnc1)S(=O)(=O)c1ccc(O)cc1 [Example 3] |  | 240 nM | IC50 (BFT; [2]): 3.84 µM
O=C(NO)[C@@H](Cc1ccc(O)cc1)N(Cc1cccnc1)S(=O)(=O)c1ccc(O)cc1 [Example 4] |  | 2040 nM | IC50 (BFT; [2]): 6.33 µM
O=C(NO)[C@@H](Cc1ccccc1)N(Cc1cccnc1)S(=O)(=O)c1ccc(O)cc1 [Example 5] |  | 240 nM | IC50 (BFT; [2]): 4.91 µM
O=C(NO)[C@@H](Cc1c[nH]c2ccccc12)N(Cc1cccnc1)S(=O)(=O)c1ccc(O)cc1 [Example 6] |  | 150 nM | IC50 (BFT; [2]): 1.62 µM
COc1ccc(S(=O)(=O)N(Cc2cccnc2)[C@H](Cc2ccccc2)C(=O)NO)cc1 [Example 19] |  | 1240 nM | IC50 (BFT; [2]): 8.26 µM
O=C(NO)[C@@H](Cc1ccc(C(F)(F)F)cc1)N(Cc1cccnc1)S(=O)(=O)c1ccc(O)cc1 [Example 20] |  | 860 nM | IC50 (BFT; [2]): 7.32 µM
COc1ccc(S(=O)(=O)N(Cc2cccnc2)[C@H](Cc2ccc(C(F)(F)F)cc2)C(=O)NO)cc1 [Example 21] |  | 2750 nM | IC50 (BFT; [2]): > 16 µM
O=C(NO)C(c1ccccc1)N(Cc1cccnc1)S(=O)(=O)c1ccc(O)cc1 (stereo not shown) [Example 22] |  | 660 nM | IC50 (BFT; [2]): 17.3 µM
O=C(NO)C(c1ccc(F)cc1)N(Cc1cccnc1)S(=O)(=O)c1ccc(O)cc1 (stereo not shown) [Example 23] |  | 300 nM | IC50 (BFT; [2]): > 50 µM
O=C(CN(Cc1cccnc1)S(=O)(=O)c1ccc(O)cc1)NO [Example 24] |  | 1100 nM | IC50 (BFT; [2]): 19.1 µM
CC[C@H](C(=O)NO)N(Cc1cccnc1)S(=O)(=O)c1ccc(O)cc1 [Example 25] |  | 90 nM | IC50 (BFT; [2]): 0.78 µM
CC(C)C[C@H](C(=O)NO)N(Cc1cccnc1)S(=O)(=O)c1cccc(O)c1 [Example 27] |  | 5950 nM | IC50 (BFT; [2]): > 50 µM
CC(C)C[C@H](C(=O)NO)N(Cc1ccncc1)S(=O)(=O)c1ccc(O)cc1 [Example 28] |  |  | IC50 (BFT; [2]): 0.198 µM
CC(C)C[C@H](C(=O)NO)N(Cc1cscn1)S(=O)(=O)c1ccc(O)cc1 [Example 30] |  |  | IC50 (BFT; [2]): 0.97 µM
COc1cccc(S(=O)(=O)N(Cc2cccnc2)[C@H](CC(C)C)C(=O)NO)c1 [Example 31] |  | 20100 nM | IC50 (BFT; [2]): > 50 µM
CC(C)C[C@H](C(=O)NO)N(Cc1cnco1)S(=O)(=O)c1ccc(O)cc1 [Example 32] |  | 510 nM | IC50 (BFT; [2]): 5.17 µM
CCC[C@H](C(=O)NO)N(Cc1ccc2[nH]ccc2c1)S(=O)(=O)c1ccc(O)cc1 [Example 63] |  |  | IC50 (collagenase H (ColH)): 8.89 µM
O=C(NO)[C@@H](Cc1cccs1)N(Cc1ccc(OC(F)(F)F)cc1)S(=O)(=O)c1ccc(O)cc1 [Example 77] |  | 150 nM | 

SMILES | IC50 (Gelatinase E (GelE)) | IC50 (recombinant BFT (rBFT); [1]) | also measured
CCC[C@@H](C(=O)NO)N(CCc1ccccn1)S(=O)(=O)c1ccc(O)cc1 [Example 78] |  | 216 nM | 
O=C(NO)[C@@H](Cc1cccs1)N(Cc1ccc(Cl)cc1)S(=O)(=O)c1ccc(O)cc1 [Example 80] |  | 290 nM | 
CCOc1ccc(CN([C@H](Cc2cccs2)C(=O)NO)S(=O)(=O)c2ccc(O)cc2)cc1 [Example 81] |  | 556 nM | 
O=C(NO)[C@@H](Cc1cccs1)N(Cc1cccc(Cl)c1)S(=O)(=O)c1ccc(O)cc1 [Example 83] |  | 530 nM | 
Cc1cccc(CN([C@H](Cc2cccs2)C(=O)NO)S(=O)(=O)c2ccc(O)cc2)c1 [Example 84] |  | 491 nM | 
COc1cccc(CN([C@H](Cc2cccs2)C(=O)NO)S(=O)(=O)c2ccc(O)cc2)c1 [Example 89] |  | 185 nM | 
Cc1ccc(CN([C@H](Cc2cccs2)C(=O)NO)S(=O)(=O)c2ccc(O)cc2)cc1 [Example 90] |  | 236 nM | 
CSCC[C@H](C(=O)NO)N(CCc1ccccc1)S(=O)(=O)c1ccc(O)cc1 [Example 92] |  | 99 nM | 
COc1ccc(C(C(=O)NO)N(Cc2ccc3[nH]ccc3c2)S(=O)(=O)c2ccc(O)cc2)cc1 (stereo not shown) [Example 93] |  | 117 nM | 
O=C(NO)[C@@H](Cc1cccs1)N(Cc1ccc(OC(F)F)cc1)S(=O)(=O)c1ccc(O)cc1 [Example 98] |  | 1400 nM | 
O=C(NO)[C@@H](Cc1cccs1)N(Cc1ccc(OCCF)cc1)S(=O)(=O)c1ccc(O)cc1 [Example 100] |  | 150 nM | 
C[C@H](C(=O)NO)N(CCc1ccccc1)S(=O)(=O)c1ccc(O)cc1 [Example 105] |  | 90 nM | 
CCC[C@H](C(=O)NO)N(CCc1ccc2[nH]ccc2c1)S(=O)(=O)c1ccc(O)cc1 [Example 112] |  | > 10000 nM | 
CC(C)[C@H](C(=O)NO)N(Cc1cccnc1)S(=O)(=O)c1ccc(O)cc1 [OH-CGS-27023A, 2(R)-[4-hydroxy-N-(3-pyridylmethyl)phenylsulfonamido]-3-methylbutyrohydroxamic acid, reference compound] |  |  | IC50 (recombinant BFT (rBFT); Table 9, FIG. 5B, read-out: IC50, inhibition of BFT-induced NFF-3 release): 366 nM; IC50 (BFT; FIG. 4, read-out: IC50, inhibition of BFT (E-cadherin release)): 1.99 µM
C=CCOc1ccc(S(=O)(=O)N(CC(=O)NO)CC(C)C)cc1 [R] | 2420 nM |  | 
COc1ccc(S(=O)(=O)N(CC(=O)NO)Cc2ccccc2)cc1 [S] | 204 nM |  | 
COc1ccc(-n2ccc(CCC(=O)NO)n2)cc1 [V] | 12700 nM |  | 
CC(C)CN(CC(=O)NO)S(=O)(=O)c1ccc(OCC(F)F)cc1 [X] | 180 nM |  | 
COCCN(CC(=O)NO)S(=O)(=O)c1ccc(OC)cc1 [Y] | 6760 nM |  | 
CC(C)CN(CC(=O)NO)S(=O)(=O)c1ccc(OCCF)cc1 [Z] | 246 nM |  | 
